Data as given in US20230086913A1, “USE OF SOPHOROLIPIDS AS FEED ADDITIVE” (DSM IP ASSETS B.V., priority 2017, published 2023).
Where two headings read alike, the source gives them in different places.

How the values were obtained:
human PBLs = assay: Effect of sophorolipids on inflammatory mediators in LPS-treated human PBLs; assay type: cell-based; settings: 1, 5 and 10 μm
Description: PBLs were isolated from human blood. PBLs were treated with LPS to induce inflammatory response in the presence of different concentrations (1 μm, 5 μm, and 10 μm) of six sophorolipids: […]); BSL(6'OH,6''OH); and BSL(6'Ac,6''Ac).

Microglial cells = assay: Effect of sophorolipid pre-treatment on inflammatory mediators in LPS-stimulated microglia; assay type: cell-based, rats; settings: E22 rat primary microglia, 24 h pre-treatment, LPS stimulation
Description: Microglial cells were obtained from primary microglial cultures from […] rats. On day 1, microglial cells were seeded in 96-well plates and allowed to adhere for 24 hours. On day 3, the microglial cells were pre-treated with sophorolipid for 24 hours (n=11). On day 4, the microglial cells were stimulated with lipopolysaccharide (LPS). On day 5, supernatants were collected and analysed for cytokines of interest.

Compound	TNF-α secretion (human PBLs)	IL-1β secretion (human PBLs)	IL-6 secretion (human PBLs)	IL-8 secretion (human PBLs)	MIP-1β secretion (human PBLs)	IC50 (Microglial cells; read-out: PGE2 secretion, 1050) [µM]	IC50 (Microglial cells; read-out: TNF-alpha secretion, 1050) [µM]
CCCCOC(=O)CCCCCCC/C=C\CCCCCC[C@H](C)O[C@@H]1O[C@H](COC(C)=O)[C@@H](O)[C@H](O)[C@H]1O[C@@H]1O[C@H](COC(C)=O)[C@@H](O)[C@H](O)[C@H]1O (relative stereo) [BSL(6′Ac,6″Ac), butyl-17-L-[(2′-0-β-D-glucopyranosyl-β-D-glucopyranosyl)-oxy]-cis-9-octadecenoate-6′-6″-diacetate]	decreased	–	–	–	–	–	–
CCOC(=O)CCCCCCC/C=C\CCCCCC[C@H](C)O[C@@H]1O[C@H](COC(C)=O)[C@@H](O)[C@H](O)[C@H]1O[C@@H]1O[C@H](COC(C)=O)[C@@H](O)[C@H](O)[C@H]1O (relative stereo) [ESL(6′Ac,6″Ac), ethyl-17-L-[(2′-0-β-D-glucopyranosyl-β-D-glucopyranosyl)-oxy]-cis-9-octadecenoate-6′-6-diacetate]	decreased	decreased	decreased	decreased	decreased	–	–
CCOC(=O)CCCCCCC/C=C\CCCCCC[C@H](C)O[C@@H]1O[C@H](CO)[C@@H](O)[C@H](O)[C@H]1O[C@@H]1O[C@H](COC(C)=O)[C@@H](O)[C@H](O)[C@H]1O (relative stereo) [ESL(6′OH,6″Ac), ethyl-17-L-[(2′-0-β-D-glucopyranosyl-β-D-glucopyranosyl)-oxy]-cis-9-octadecenoate-6″-acetate]	decreased	–	–	–	decreased	–	–
Sophorolipid	–	–	–	–	–	29.8	21.2
